Data on three compounds can be found in ChEMBL document CHEMBL1201862, “PubChem BioAssay data set” (2004).

A word on the IC50: it is the concentration that inhibits the measured activity by half.

Active and inactive are the calls of the source. No stated cut-off is given here; in the data, actives have a measured IC50 and inactives only a lower limit.

Envelope glycoprotein gp160, sequence (Q6QLK5 whole entry, the tested form may be a part): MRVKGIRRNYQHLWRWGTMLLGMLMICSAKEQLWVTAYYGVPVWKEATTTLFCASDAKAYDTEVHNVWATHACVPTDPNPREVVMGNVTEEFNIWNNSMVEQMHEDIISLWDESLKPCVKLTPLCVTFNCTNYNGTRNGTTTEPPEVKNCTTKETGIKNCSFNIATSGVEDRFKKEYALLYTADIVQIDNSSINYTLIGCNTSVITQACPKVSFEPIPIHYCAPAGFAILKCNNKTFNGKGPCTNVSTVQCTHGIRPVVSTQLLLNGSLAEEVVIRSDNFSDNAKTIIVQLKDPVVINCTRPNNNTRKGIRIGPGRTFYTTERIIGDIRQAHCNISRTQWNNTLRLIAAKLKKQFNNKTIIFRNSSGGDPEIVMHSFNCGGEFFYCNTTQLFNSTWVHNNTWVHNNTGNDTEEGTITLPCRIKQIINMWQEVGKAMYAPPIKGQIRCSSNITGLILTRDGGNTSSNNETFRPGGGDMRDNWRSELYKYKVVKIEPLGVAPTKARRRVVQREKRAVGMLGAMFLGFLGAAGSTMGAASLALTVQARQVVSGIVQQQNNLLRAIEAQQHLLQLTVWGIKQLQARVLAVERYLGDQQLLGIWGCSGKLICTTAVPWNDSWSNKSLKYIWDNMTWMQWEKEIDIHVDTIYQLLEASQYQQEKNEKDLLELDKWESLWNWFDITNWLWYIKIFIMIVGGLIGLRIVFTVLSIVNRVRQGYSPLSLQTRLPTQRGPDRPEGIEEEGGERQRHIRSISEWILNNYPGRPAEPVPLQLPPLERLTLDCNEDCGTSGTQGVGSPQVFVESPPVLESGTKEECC

The experiment has as its target Envelope glycoprotein gp160 (Human immunodeficiency virus 1, UniProt Q6QLK5). The experiment is described as follows: cell-free HIV fusion peptide-binding blockers – biochemical, uHTS, fluorescence dequenching, […] (AID 1986).
As for `CCn1nc([N+](=O)[O-])c(C(C#N)c2nc3cc(C(F)(F)F)ccc3s2)c(Cl)c1=O` (stereo not drawn), the half-maximal inhibitory concentration (IC50) was 14.9 µM (active). Consider `Cc1c2c(=O)n(-c3nc4ccccc4s3)nc-2cc(O)n1Cc1ccccc1`, for which the half-inhibitory concentration (IC50) is 13.8 µM (active).

`CC(c1ccccc1)N1C(=O)c2ccc(C(=O)Nc3ccccc3C(=O)O)cc2C1=O` (stereo not drawn): the half-inhibitory concentration (IC50) is 19.3 µM (active).
